Experimental data published in publication PMC5218480 (PLoS ONE, 2017).

Test system: MV-4-11 cells
Experiment: Gene expression microarray analysis (Affymetrix PrimeView) and GSEA
Format: cell-based, human
Parameters: RFU PODN (11730768_x_at) / Fold change /veh PODN (11730768_x_at) / RFU LINC00158 (11744669_a_at) / Fold change /veh LINC00158 (11744669_a_at) / RFU DUSP10 (11751237_a_at) / Fold change /veh DUSP10 (11751237_a_at) / RFU ID3 (11757404_x_at) / Fold change /veh ID3 (11757404_x_at) / RFU PLEKHG5 (11737974_s_at) / Fold change /veh PLEKHG5 (11737974_s_at) / RFU LRRC4B (11730491_at) / Fold change /veh LRRC4B (11730491_at) / RFU GIMAP4 (11747438_a_at) / Fold change /veh GIMAP4 (11747438_a_at) / RFU KRT8 (11758183_x_at) / Fold change /veh KRT8 (11758183_x_at) / RFU CNN1 (11734310_a_at) / Fold change /veh CNN1 (11734310_a_at) / RFU VPS37D (11726825_at) / Fold change /veh VPS37D (11726825_at) / RFU C10orf10 (11716522_x_at) / Fold change /veh C10orf10 (11716522_x_at) / RFU KIR2DL2 /// KIR2DL4 /// KIR2DL5A /// KIR2DL5B /// KIR2DS1 /// KIR2DS2 /// KIR2DS3 /// KIR2DS4 /// KIR3DL3 /// KIR3DL3 /// KIR3DS1 (11738374_at) / Fold change /veh KIR2DL2 /// KIR2DL4 /// KIR2DL5A /// KIR2DL5B /// KIR2DS1 /// KIR2DS2 /// KIR2DS3 /// KIR2DS4 /// KIR3DL3 /// KIR3DL3 /// KIR3DS1 (11738374_at) / RFU C1QL1 (11718748_at) / Fold change /veh C1QL1 (11718748_at) / RFU TMPRSS4 (11747572_a_at) / Fold change /veh TMPRSS4 (11747572_a_at) / RFU HAMP (11756126_x_at) / Fold change /veh HAMP (11756126_x_at) / RFU RNFT2 (11725882_a_at) / Fold change /veh RNFT2 (11725882_a_at) / RFU NR4A2 (11747474_a_at) / Fold change /veh NR4A2 (11747474_a_at) / RFU ABCC12 (11746883_a_at) / Fold change /veh ABCC12 (11746883_a_at) / RFU TMEM136 (11760407_x_at) / Fold change /veh TMEM136 (11760407_x_at) / RFU CLDN22 /// WWC2 (11732394_at) / Fold change /veh CLDN22 /// WWC2 (11732394_at) / RFU HLA-DPB1 (11760878_x_at) / Fold change /veh HLA-DPB1 (11760878_x_at) / RFU SPINT1 (11716480_a_at) / Fold change /veh SPINT1 (11716480_a_at) / RFU GAP43 (11754022_s_at) / Fold change /veh GAP43 (11754022_s_at) / RFU A4GNT (11735810_at) / Fold change /veh A4GNT (11735810_at) / RFU PRB3 (11715151_x_at) / Fold change /veh PRB3 (11715151_x_at) / RFU TUBB4B (11761932_at) / Fold change /veh TUBB4B (11761932_at) / RFU CAPN14 (11732068_a_at) / Fold change /veh CAPN14 (11732068_a_at) / RFU TMCC2 (11721928_a_at) / Fold change /veh TMCC2 (11721928_a_at) / RFU IRGQ (11745062_a_at) / Fold change /veh IRGQ (11745062_a_at) / RFU FAM174B (11720279_a_at) / Fold change /veh FAM174B (11720279_a_at) / RFU TMPRSS4 (11748680_a_at) / Fold change /veh TMPRSS4 (11748680_a_at) / RFU FAM212B (11763350_a_at) / Fold change /veh FAM212B (11763350_a_at) / RFU PLEKHG5 (11743358_a_at) / Fold change /veh PLEKHG5 (11743358_a_at) / RFU ZSCAN30 (11745921_a_at) / Fold change /veh ZSCAN30 (11745921_a_at) / RFU CMKLR1 (11741424_a_at) / Fold change /veh CMKLR1 (11741424_a_at) / RFU LOC101060620 /// MAPK8IP1 (11723275_at) / Fold change /veh LOC101060620 /// MAPK8IP1 (11723275_at) / RFU SPTSSB (11747773_x_at) / Fold change /veh SPTSSB (11747773_x_at) / RFU PRSS12 (11739890_at) / Fold change /veh PRSS12 (11739890_at) / RFU BIN1 (11741810_x_at) / Fold change /veh BIN1 (11741810_x_at) / RFU WNT11 (11732464_a_at) / Fold change /veh WNT11 (11732464_a_at) / RFU C10orf10 (11716521_a_at) / Fold change /veh C10orf10 (11716521_a_at) / RFU C5orf56 (11738089_at) / Fold change /veh C5orf56 (11738089_at) / RFU CYB561 (11721691_x_at) / Fold change /veh CYB561 (11721691_x_at) / RFU ANKRD19P (11752326_a_at) / Fold change /veh ANKRD19P (11752326_a_at) / RFU OR2T12 /// OR2T33 /// OR2T8 (11738714_s_at) / Fold change /veh OR2T12 /// OR2T33 /// OR2T8 (11738714_s_at) / RFU VCAN (11748164_a_at) / Fold change /veh VCAN (11748164_a_at) / RFU JSRP1 (11732532_at) / Fold change /veh JSRP1 (11732532_at) / RFU KRTAP10-11 (11738290_x_at) / Fold change /veh KRTAP10-11 (11738290_x_at) / RFU MYO3A (11730013_a_at) / Fold change /veh MYO3A (11730013_a_at) / RFU EBF3 (11725865_a_at) / Fold change /veh EBF3 (11725865_a_at) / RFU CAMK2N1 (11719241_x_at) / Fold change /veh CAMK2N1 (11719241_x_at) / RFU C5orf56 (11738088_a_at) / Fold change /veh C5orf56 (11738088_a_at) / RFU OLFML3 (11715873_a_at) / Fold change /veh OLFML3 (11715873_a_at) / RFU LOC100653217 /// NTM (11731650_a_at) / Fold change /veh LOC100653217 /// NTM (11731650_a_at) / RFU MAPK11 (11762145_a_at) / Fold change /veh MAPK11 (11762145_a_at) / RFU FIZ1 (11724087_x_at) / Fold change /veh FIZ1 (11724087_x_at) / RFU OASL (11726364_x_at) / Fold change /veh OASL (11726364_x_at) / RFU SOX15 (11748057_x_at) / Fold change /veh SOX15 (11748057_x_at) / RFU CD79A (11719716_a_at) / Fold change /veh CD79A (11719716_a_at) / RFU HIST1H1D (11736915_at) / Fold change /veh HIST1H1D (11736915_at) / RFU CASKIN2 (11723855_a_at) / Fold change /veh CASKIN2 (11723855_a_at) / RFU LOC730098 (11760151_x_at) / Fold change /veh LOC730098 (11760151_x_at) / RFU OR4N2 (11742367_at) / Fold change /veh OR4N2 (11742367_at) / RFU PRRT2 (11749266_a_at) / Fold change /veh PRRT2 (11749266_a_at) / RFU SNX32 (11753110_a_at) / Fold change /veh SNX32 (11753110_a_at) / RFU CDHR5 (11726645_a_at) / Fold change /veh CDHR5 (11726645_a_at) / RFU RCAN1 (11760418_a_at) / Fold change /veh RCAN1 (11760418_a_at) / RFU FAM167A (11723789_a_at) / Fold change /veh FAM167A (11723789_a_at) / RFU FAM26E (11764081_at) / Fold change /veh FAM26E (11764081_at) / RFU ISYNA1 (11749810_s_at) / Fold change /veh ISYNA1 (11749810_s_at) / RFU ACY1 (11761880_at) / Fold change /veh ACY1 (11761880_at) / RFU 11764098_at / Fold change /veh 11764098_at / RFU SAMD14 (11745864_x_at) / Fold change /veh SAMD14 (11745864_x_at) / RFU NPB (11741838_a_at) / Fold change /veh NPB (11741838_a_at) / RFU TMPRSS6 (11731388_a_at) / Fold change /veh TMPRSS6 (11731388_a_at) / RFU KRTAP10-2 (11738614_at) / Fold change /veh KRTAP10-2 (11738614_at) / RFU ARHGAP8 /// PRR5-ARHGAP8 (11727945_x_at) / Fold change /veh ARHGAP8 /// PRR5-ARHGAP8 (11727945_x_at) / RFU KRTAP5-7 /// NADSYN1 (11734609_at) / Fold change /veh KRTAP5-7 /// NADSYN1 (11734609_at) / RFU RASL12 (11751679_a_at) / Fold change /veh RASL12 (11751679_a_at) / RFU CDKN2B (11736163_a_at) / Fold change /veh CDKN2B (11736163_a_at) / RFU PRF1 (11729649_at) / Fold change /veh PRF1 (11729649_at) / RFU, ZNF638 /// ZNF638-IT1 / Fold change vs veh, ZNF638 /// ZNF638-IT1 / RFU, PANK3 / Fold change vs veh, PANK3 / RFU, SH3YL1 / Fold change vs veh, SH3YL1 / RFU, ZEB2 / Fold change vs veh, ZEB2 / RFU, NRIP1 / Fold change vs veh, NRIP1 / RFU, PTTG1IP / Fold change vs veh, PTTG1IP / RFU, CAPN2 / Fold change vs veh, CAPN2 / RFU, MED14 / Fold change vs veh, MED14 / RFU, SNORA58 / Fold change vs veh, SNORA58 / RFU, C1orf63 / Fold change vs veh, C1orf63 / RFU, LRRFIP1 / Fold change vs veh, LRRFIP1 / RFU, NDUFAF7 / Fold change vs veh, NDUFAF7 / RFU, SLC12A2 / Fold change vs veh, SLC12A2 / RFU, IBTK / Fold change vs veh, IBTK / RFU, ESF1 / Fold change vs veh, ESF1 / Fold change vs veh, TMEM50B / RFU, TAOK1 / Fold change vs veh, TAOK1 / RFU, ACBD3 / Fold change vs veh, ACBD3 / RFU, TMA16 / Fold change vs veh, TMA16 / RFU, RWDD3 / Fold change vs veh, RWDD3 / RFU, BCAT1 / Fold change vs veh, BCAT1 / RFU, EDEM3 / Fold change vs veh, EDEM3 / RFU, TMEM33 / Fold change vs veh, TMEM33 / RFU, WDR75 / Fold change vs veh, WDR75 / RFU, AHCTF1 / Fold change vs veh, AHCTF1 / RFU, TFRC / Fold change vs veh, TFRC / RFU, ZDHHC17 / Fold change vs veh, ZDHHC17 / RFU, NOM1 / Fold change vs veh, NOM1 / RFU, ARL8B / Fold change vs veh, ARL8B / RFU, ZBTB11 / Fold change vs veh, ZBTB11 / RFU, TAMM41 / Fold change vs veh, TAMM41 / RFU, KIAA1704 /// LOC100996395 / Fold change vs veh, KIAA1704 /// LOC100996395 / RFU, ING1 / Fold change vs veh, ING1 / RFU, TRMT61B / Fold change vs veh, TRMT61B / RFU, FUBP3 / Fold change vs veh, FUBP3 / RFU, TP53 / Fold change vs veh, TP53 / RFU, TNKS2 / Fold change vs veh, TNKS2 / RFU, ZFP14 / Fold change vs veh, ZFP14 / RFU, ACTR2 / Fold change vs veh, ACTR2 / RFU, PPP3R1 / Fold change vs veh, PPP3R1 / RFU, PIK3R1 / Fold change vs veh, PIK3R1 / RFU, HNRNPA1 / Fold change vs veh, HNRNPA1 / RFU, RNF170 / Fold change vs veh, RNF170 / RFU, ZNF28 / Fold change vs veh, ZNF28 / RFU, RNGTT / Fold change vs veh, RNGTT / RFU, OGT / Fold change vs veh, OGT / RFU, BRD1 / Fold change vs veh, BRD1 / RFU, MARS / Fold change vs veh, MARS / RFU, ZNF655 / Fold change vs veh, ZNF655 / RFU, FAHD1 / Fold change vs veh, FAHD1 / RFU, BDP1 / Fold change vs veh, BDP1 / RFU, LRRCC1 / Fold change vs veh, LRRCC1 / RFU, ARID1A / Fold change vs veh, ARID1A / RFU, ZNF146 / Fold change vs veh, ZNF146 / RFU, ZNF330 / Fold change vs veh, ZNF330 / RFU, GPN3 / Fold change vs veh, GPN3 / RFU, C9orf123 / Fold change vs veh, C9orf123 / RFU, N4BP2L2 / Fold change vs veh, N4BP2L2 / RFU, ARFIP1 / Fold change vs veh, ARFIP1 / RFU, FAM179B / Fold change vs veh, FAM179B / RFU, BCL10 / Fold change vs veh, BCL10 / RFU, UHRF1BP1L / Fold change vs veh, UHRF1BP1L / RFU, BET1 / Fold change vs veh, BET1 / RFU, CNOT2 / Fold change vs veh, CNOT2 / RFU, ZNF268 / Fold change vs veh, ZNF268 / Fold change vs veh, ZNF507 / RFU, DGCR2 / Fold change vs veh, DGCR2 / RFU, WDSUB1 / Fold change vs veh, WDSUB1 / Fold change vs veh, HSP90B1 /// MIR3652 / RFU, ADSS / Fold change vs veh, ADSS / RFU, GK / Fold change vs veh, GK / RFU, ZNF148 / Fold change vs veh, ZNF148 / RFU, TAF9 / Fold change vs veh, TAF9 / RFU, SLC1A5 / Fold change vs veh, SLC1A5 / RFU, SLMO2 / Fold change vs veh, SLMO2 / RFU, ABCC4 / Fold change vs veh, ABCC4 / RFU, LOC101060439 /// RAP1B / Fold change vs veh, LOC101060439 /// RAP1B / RFU, RFX7 / Fold change vs veh, RFX7 / RFU, GTPBP10 / Fold change vs veh, GTPBP10 / RFU, CNEP1R1 / Fold change vs veh, CNEP1R1 / RFU, BIVM-ERCC5 /// ERCC5 / Fold change vs veh, BIVM-ERCC5 /// ERCC5 / RFU, ILF3 / Fold change vs veh, ILF3 / RFU 11762660_at / Fold change /veh 11762660_at / RFU VCAN (11757783_s_at) / Fold change /veh VCAN (11757783_s_at) / RFU DDX43 (11728927_at) / Fold change /veh DDX43 (11728927_at) / RFU KRT8 (11758188_x_at) / Fold change /veh KRT8 (11758188_x_at) / RFU NKD1 (11759106_at) / Fold change /veh NKD1 (11759106_at) / RFU SRD5A1 (11742802_a_at) / Fold change /veh SRD5A1 (11742802_a_at) / RFU TPSAB1 /// TPSB2 (11721975_s_at) / Fold change /veh TPSAB1 /// TPSB2 (11721975_s_at) / RFU GSTM3 (11746129_a_at) / Fold change /veh GSTM3 (11746129_a_at) / RFU IL23R (11737362_x_at) / Fold change /veh IL23R (11737362_x_at) / RFU TMEM51 (11727254_a_at) / Fold change /veh TMEM51 (11727254_a_at) / RFU PIWIL2 (11732686_x_at) / Fold change /veh PIWIL2 (11732686_x_at) / RFU ORM1 (11744905_x_at) / Fold change /veh ORM1 (11744905_x_at) / RFU CCDC152 (11743942_at) / Fold change /veh CCDC152 (11743942_at) / RFU ECM1 (11717891_a_at) / Fold change /veh ECM1 (11717891_a_at) / RFU IL23R (11748794_a_at) / Fold change /veh IL23R (11748794_a_at) / RFU TNFAIP8L3 (11732012_x_at) / Fold change /veh TNFAIP8L3 (11732012_x_at) / RFU MBOAT4 (11741988_at) / Fold change /veh MBOAT4 (11741988_at) / RFU 11764193_at / Fold change /veh 11764193_at / RFU TMEM53 (11763286_at) / Fold change /veh TMEM53 (11763286_at) / RFU MAGEB2 (11727129_at) / Fold change /veh MAGEB2 (11727129_at) / RFU TMEM200A (11744735_a_at) / Fold change /veh TMEM200A (11744735_a_at) / RFU CCDC152 (11751479_a_at) / Fold change /veh CCDC152 (11751479_a_at) / RFU FAM211A (11726209_a_at) / Fold change /veh FAM211A (11726209_a_at) / RFU RGS16 (11746705_a_at) / Fold change /veh RGS16 (11746705_a_at) / RFU VCAN (11755009_s_at) / Fold change /veh VCAN (11755009_s_at) / RFU RHOB (11743442_s_at) / Fold change /veh RHOB (11743442_s_at) / RFU RGS16 (11720943_a_at) / Fold change /veh RGS16 (11720943_a_at) / RFU RGS16 (11720944_at) / Fold change /veh RGS16 (11720944_at) / RFU, VPS4B / Fold change vs veh, VPS4B / RFU, CREB1 / Fold change vs veh, CREB1 / RFU, DNAJC13 / Fold change vs veh, DNAJC13 / RFU, GNAQ / Fold change vs veh, GNAQ / RFU, CDK5R1 / Fold change vs veh, CDK5R1 / RFU, ZRANB3 / Fold change vs veh, ZRANB3 / RFU, CUL4A / Fold change vs veh, CUL4A / RFU, CCNY / Fold change vs veh, CCNY / RFU, UFL1 / Fold change vs veh, UFL1 / RFU, COG3 / Fold change vs veh, COG3 / RFU, DIAPH2 / Fold change vs veh, DIAPH2 / RFU, SKA2 / Fold change vs veh, SKA2 / RFU, AFF3 / Fold change vs veh, AFF3 / RFU, LMF1 / Fold change vs veh, LMF1 / RFU, IPO11 / Fold change vs veh, IPO11 / RFU, DFFB / Fold change vs veh, DFFB / RFU, FOXP1 / Fold change vs veh, FOXP1 / RFU, CARD8 / Fold change vs veh, CARD8 / RFU, STRN3 / Fold change vs veh, STRN3 / RFU, ADK / Fold change vs veh, ADK / RFU, RASSF2 / Fold change vs veh, RASSF2 / RFU, WIPF1 / Fold change vs veh, WIPF1 / RFU, LARP1B / Fold change vs veh, LARP1B / RFU, RASA1 / Fold change vs veh, RASA1 / RFU, RB1 / Fold change vs veh, RB1 / RFU, PPFIA1 / Fold change vs veh, PPFIA1 / RFU, MAT2A / Fold change vs veh, MAT2A / RFU, CCT5 / Fold change vs veh, CCT5 / RFU, WDR92 / Fold change vs veh, WDR92 / RFU, CUX1 / Fold change vs veh, CUX1 / RFU, TTC7A / Fold change vs veh, TTC7A / RFU, TMEM135 / Fold change vs veh, TMEM135 / RFU, DEPTOR / Fold change vs veh, DEPTOR / RFU, CPM / Fold change vs veh, CPM / RFU, DNAJB6 / Fold change vs veh, DNAJB6 / RFU, CACNA2D3 / Fold change vs veh, CACNA2D3 / RFU, DTX4 / Fold change vs veh, DTX4 / RFU, TFCP2 / Fold change vs veh, TFCP2 / RFU, GMCL1 /// GMCL1P1 / Fold change vs veh, GMCL1 /// GMCL1P1 / RFU, AEBP2 / Fold change vs veh, AEBP2 / RFU, SNHG1 /// SNORD22 /// SNORD25 /// SNORD26 /// SNORD27 /// SNORD28 /// SNORD29 /// SNORD31 / Fold change vs veh, SNHG1 /// SNORD22 /// SNORD25 /// SNORD26 /// SNORD27 /// SNORD28 /// SNORD29 /// SNORD31 / Fold change (Aza/veh), C12orf56 (ProbeSet 11735607_a_at) / Fold change (ACY-1035/veh), C12orf56 (ProbeSet 11735607_a_at) / Fold change (Aza/veh), FGFR1OP (ProbeSet 11751329_s_at) / Fold change (ACY-1035/veh), FGFR1OP (ProbeSet 11751329_s_at) / Fold change (Aza/veh), VPS36 (ProbeSet 11739960_a_at) / Fold change (ACY-1035/veh), VPS36 (ProbeSet 11739960_a_at) / RFU SYPL1 (11715823_x_at) / Fold change /veh SYPL1 (11715823_x_at) / RFU IGFBP7 (11715501_s_at) / Fold change /veh IGFBP7 (11715501_s_at) / RFU REEP3 (11722064_at) / Fold change /veh REEP3 (11722064_at) / RFU IGLL1 (11728026_x_at) / Fold change /veh IGLL1 (11728026_x_at): dose or concentration left out as unconfirmed
Conditions: MV-4-11 cells, 48 hours

Nc1ccc(-c2cccs2)cc1NC(=O)c1ccc2c(c1)cc(C1CC1)n2CCN1CCOCC1 [ACY-1035]
Fold change /veh LINC00158 (11744669_a_at): 1.11
